# Data reported in patent US12252524B2, “GIP/GLP1 co-agonist compounds” (Eli Lilly and Company, priority 2018, dated 2025).
# Numbered stars: 1 amine (or outer) side, 2 acyl side, 3 side chain; on linkers, the order of the positions; unused ones are H or OH. Square brackets hold non-standard residues; d marks the D form. Side chains are listed from the residue outwards. Peptide text beside a SMILES is read from it. * marks the point of attachment. C20 diacid = O=C(O)CCCCCCCCCCCCCCCCCCC(=O)*; γGlu = O=C(O)[C@H](CCC(=O)[*:2])N[*:1]; AEEA = NCCOCCOCC(=O)O; Aib = CC(C)(N)C(=O)O
# Key:
# [1] = biological target: T1, human Gcg receptor (Homo sapiens, UniProt P47871); test: [125I]-Glucagon binding (SPA), human Gcg receptor; details: read-out: hGLcgR Ki, nM (SEM, n)
# T1 construct: expressed in transfected cells; crude membranes
# T1 sequence (P47871 26-477): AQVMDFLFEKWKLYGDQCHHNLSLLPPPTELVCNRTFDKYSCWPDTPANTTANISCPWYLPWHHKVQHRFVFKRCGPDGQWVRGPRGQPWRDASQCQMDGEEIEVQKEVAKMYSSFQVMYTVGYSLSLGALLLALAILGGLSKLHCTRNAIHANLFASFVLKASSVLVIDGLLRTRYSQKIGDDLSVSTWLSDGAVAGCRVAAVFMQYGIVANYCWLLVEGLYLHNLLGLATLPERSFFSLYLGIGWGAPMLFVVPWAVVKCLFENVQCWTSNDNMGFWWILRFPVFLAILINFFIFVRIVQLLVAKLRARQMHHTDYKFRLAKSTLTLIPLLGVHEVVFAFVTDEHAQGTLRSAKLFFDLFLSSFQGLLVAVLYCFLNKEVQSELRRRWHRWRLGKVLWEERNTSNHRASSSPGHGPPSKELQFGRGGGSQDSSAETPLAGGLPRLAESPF
# Experimental: (§1) Two methods are used for the preparation of crude cell membranes.
# (§2) Method 1: Frozen cell pellets are lysed on ice in hypotonic buffer containing 50 mM Tris HCl, pH 7.5, and Roche Complete™ Protease Inhibitors with EDTA. The cell suspension is disrupted using a glass Potter-Elvehjem homogenizer fitted with a Teflon® pestle for 25 strokes. The homogenate is centrifuged at 4° C. at 1100×g for 10 minutes. The supernatant is collected and stored on ice while the pellets are resuspended in homogenization buffer and rehomogenized as described above. The homogenate is centrifuged at 1100×g for 10 minutes. The second supernatant is combined with the first supernatant and centrifuged at 35000×g for 1 hour at 4° C. The resulting membrane pellet is resuspended in homogenization buffer containing protease inhibitors at approximately 1 to 3 mg/mL, quick frozen in liquid nitrogen and stored as aliquots in a−80° C. freezer until use.
# (§3) Method 2: Frozen cell pellets are lysed on ice in hypotonic buffer containing 50 mM Tris HCl, pH 7.5, 1 mM MgCl2, Roche Complete™ EDTA-free Protease Inhibitors and 25 units/ml DNAse I (Invitrogen). The cell suspension is disrupted using a glass Potter-Elvehjem homogenizer fitted with a Teflon® pestle for 20 to 25 strokes. The homogenate is centrifuged at 4° C. at 1800×g for 15 minutes. The supernatant is collected and stored on ice while the pellets are resuspended in homogenization buffer (without DNAse I) and rehomogenized as described above. The homogenate is centrifuged at 1800×g for 15 minutes. The second supernatant is combined with the first supernatant and centrifuged an additional time at 1800×g for 15 minutes. The overall supernatant is then centrifuged at 25000×g for 30 minutes at 4° C. The resulting membrane pellet is resuspended in homogenization buffer (without DNAse I) containing protease inhibitors at approximately 1 to 3 mg/mL and stored as aliquots in a−80° C. freezer until use.
# The human Gcg receptor binding assays are performed using a Scintillation Proximity Assay (SPA) format with wheat germ agglutinin (WGA) beads (Perkin Elmer). The binding buffer contains 25 mM 4-(2-hydroxyethyl)-1-piperazineethanesulfonic acid (HEPES), pH 7.4, 2.5 mM CaCl2, 1 mM MgCl2, 0.1% (w/v) bacitracin (Research Products), 0.003% (w/v) Polyoxyethylenesorbitan monolaurate (TWEEN©-20), and Roche Complete™ Protease Inhibitors without EDTA. […] Plates are sealed and mixed on a plate shaker (setting 6) for 1 minute and read with a PerkinElmer Trilux MicroBeta© scintillation counter after 12 hours of incubation/settling time at room temperature.
# (§4) Data are analyzed using four-parameter (curve maximum, curve minimum, IC50, Hill slope) nonlinear regression routines (Genedata Screener, version 12.0.4, Genedata AG, Basal, Switzerland). […] Values for Ki are reported as the geometric mean, with error expressed as the standard error of the mean (SEM) and n is equal to the number of independent replicates (determined in assays performed on different days). […] The Ki Ratio is a rapid indication of the apparent affinity of a peptide compared to the native control peptide. […] SEM is only calculated when n=2 or greater non-qualified results exist. Means are expressed as GeoMetric means with the standard error of the mean (SEM) and the number of replicates (n) indicated in parenthesis.
# [2] = biological target: human GLP-1 receptor (GLP-1R) (Homo sapiens, UniProt P43220); test: cAMP pharmacological functional assay in presence of casein, hGLP-1R; format: cell-based; details: HEK293 cells expressing hGLP-1R, 0.1% Casein, geometric mean; read-out: hGLP1R cAMP Rel EC50 nM (SEM, n)
# human GLP-1 receptor (GLP-1R), sequence (P43220 24-463): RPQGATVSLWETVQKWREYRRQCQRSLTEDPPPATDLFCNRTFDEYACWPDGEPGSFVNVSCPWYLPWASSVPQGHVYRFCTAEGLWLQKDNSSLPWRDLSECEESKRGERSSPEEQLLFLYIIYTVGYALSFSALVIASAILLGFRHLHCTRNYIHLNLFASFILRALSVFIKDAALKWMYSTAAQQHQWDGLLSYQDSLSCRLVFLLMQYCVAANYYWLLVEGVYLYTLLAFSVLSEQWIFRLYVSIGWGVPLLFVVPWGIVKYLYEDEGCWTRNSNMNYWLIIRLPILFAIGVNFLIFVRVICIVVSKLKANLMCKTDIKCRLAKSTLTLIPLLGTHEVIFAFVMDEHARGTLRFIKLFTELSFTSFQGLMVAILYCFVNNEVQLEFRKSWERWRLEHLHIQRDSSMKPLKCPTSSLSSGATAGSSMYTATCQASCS
# [3] = biological target: human GLP-1R (Homo sapiens, UniProt P43220); test: [125I]-GLP-1 binding (SPA), human GLP-1 receptor; design: expressed in transfected cells; crude membranes; details: read-out: hGLP1R Ki, (nM) (SEM, n)
# human GLP-1R, sequence (P43220 24-463): as above
# Experimental: as §1, §2, §3
# The binding buffer contains 25 mM HEPES, pH 7.4, 2.5 mM CaCl2, 1 mM MgCl2, 0.1% (w/v) bacitracin, 0.003% (w/v) TWEEN©-20, and Roche Complete™ Protease Inhibitors without EDTA.
# as §4
# [4] = biological target: T2, gastric inhibitory peptide receptor (GIPR) (Homo sapiens, UniProt P48546); test: cAMP pharmacological functional assay in presence of casein, hGIPR; format: cell-based; details: HEK293 cells expressing hGIPR, 0.1% Casein, geometric mean; read-out: hGIPR cAMP Rel EC50 nM (SEM, n)
# T2 sequence (P48546 22-466): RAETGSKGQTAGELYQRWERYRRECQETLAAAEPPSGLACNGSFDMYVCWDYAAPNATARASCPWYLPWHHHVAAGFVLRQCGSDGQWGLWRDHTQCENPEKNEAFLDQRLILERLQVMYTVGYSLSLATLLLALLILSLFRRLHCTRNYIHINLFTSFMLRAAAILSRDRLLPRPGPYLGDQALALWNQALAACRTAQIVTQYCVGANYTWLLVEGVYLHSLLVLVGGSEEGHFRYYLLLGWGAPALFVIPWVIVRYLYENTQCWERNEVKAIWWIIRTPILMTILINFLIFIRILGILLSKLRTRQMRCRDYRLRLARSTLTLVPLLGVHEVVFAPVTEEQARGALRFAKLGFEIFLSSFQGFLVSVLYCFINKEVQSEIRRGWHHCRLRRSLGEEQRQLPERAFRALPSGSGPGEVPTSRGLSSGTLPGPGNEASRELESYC
# [5] = biological target: T3, human GIP receptor (Homo sapiens, UniProt P48546); test: [125I]-GIP binding (SPA), human GIP receptor; details: read-out: hGIPR Ki, nM (SEM, n)
# T3 construct: expressed in transfected cells; crude membranes
# T3 sequence (P48546 22-466): T2 sequence (P48546 22-466)
# Experimental: as §1, §2, §3
# The binding buffer contains 25 mM HEPES, pH 7.4, 2.5 mM CaCl2, 1 mM MgCl2, 0.1% (w/v) bacitracin, 0.003% (w/v) TWEEN©-20, and Roche Complete™ Protease Inhibitors without EDTA. Peptides and GIP are thawed and 3 fold serially diluted in 100% DMSO (10 point concentration response curves). […] Plates are sealed and mixed on a plate shaker (setting 6) for 1 minute and read with a PerkinElmer Trilux MicroBeta© scintillation counter after 2.5 to 12 hours of incubation/settling time at room temperature.
# as §4
SMILES,Ki [1] [nM],EC50 [2] [nM],Ki [3] [nM],EC50 [4] [nM],Ki [5] [nM]
CC[C@H](C)[C@H](NC(=O)[C@H](CC(C)C)NC(=O)[C@H](Cc1ccc(O)cc1)NC(=O)[C@H](CCC(=O)O)NC(=O)[C@@H](NC(=O)[C@H](Cc1ccccc1)NC(=O)[C@H](C)NC(=O)C(C)(C)NC(=O)[C@H](CCC(N)=O)NC(=O)[C@H](C)NC(=O)[C@H](CCCCNC(=O)COCCOCCNC(=O)COCCOCCNC(=O)CC[C@H](NC(=O)CCCCCCCCCCCCCCCCCCC(=O)O)C(=O)O)NC(=O)[C@H](CO)NC(=O)[C@H](CC(=O)O)NC(=O)[C@H](CC(C)C)NC(=O)[C@H](CC(C)C)NC(=O)[C@@H](NC(=O)[C@H](CO)NC(=O)[C@H](Cc1ccc(O)cc1)NC(=O)[C@H](CC(=O)O)NC(=O)[C@H](CO)NC(=O)[C@@H](NC(=O)[C@H](Cc1ccccc1)NC(=O)[C@@H](NC(=O)CNC(=O)[C@H](CCC(=O)O)NC(=O)C(C)(C)NC(=O)[C@@H](N)Cc1ccc(O)cc1)[C@@H](C)O)[C@@H](C)O)[C@@H](C)CC)[C@@H](C)CC)C(=O)N[C@@H](CCC(=O)O)C(=O)NCC(=O)NCC(=O)N1CCC[C@H]1C(=O)N[C@@H](CO)C(=O)N[C@@H](CO)C(=O)NCC(=O)N[C@@H](C)C(=O)N1CCC[C@H]1C(=O)N1CCC[C@H]1C(=O)N1CCC[C@H]1C(=O)N[C@@H](CO)C(N)=O [Example 9] (H-Y[Aib]EGTFTSDYSILLDSK([AEEA-AEEA-γGlu-C20 diacid])AQ[Aib]AFIEYLIEGGPSSGAPPPS-NH2),375,0.194,14.9,0.21,0.127
CC[C@H](C)[C@H](NC(=O)[C@H](CO)NC(=O)[C@H](CC(=O)O)NC(=O)[C@H](CC(C)C)NC(=O)[C@H](CC(C)C)NC(=O)[C@@H](NC(=O)[C@H](CO)NC(=O)[C@H](Cc1ccc(O)cc1)NC(=O)[C@H](CC(=O)O)NC(=O)[C@H](CO)NC(=O)[C@@H](NC(=O)[C@H](Cc1ccccc1)NC(=O)[C@@H](NC(=O)CNC(=O)[C@H](CCC(=O)O)NC(=O)C(C)(C)NC(=O)[C@@H](N)Cc1ccc(O)cc1)[C@@H](C)O)[C@@H](C)O)[C@@H](C)CC)C(=O)N[C@@H](C)C(=O)N[C@@H](CCC(N)=O)C(=O)NC(C)(C)C(=O)N[C@@H](C)C(=O)N[C@@H](Cc1ccccc1)C(=O)N[C@H](C(=O)N[C@@H](CCCCNC(=O)COCCOCCNC(=O)COCCOCCNC(=O)CC[C@H](NC(=O)CCCCCCCCCCCCCCCCCCC(=O)O)C(=O)O)C(=O)N[C@@H](Cc1ccc(O)cc1)C(=O)N[C@@H](CC(C)C)C(=O)N[C@@H](CC(C)C)C(=O)N[C@@H](C)C(=O)NC(C)(C)C(=O)NCC(=O)N1CCC[C@H]1C(=O)N[C@@H](CO)C(=O)N[C@@H](CO)C(=O)NCC(=O)N[C@@H](C)C(=O)N1CCC[C@H]1C(=O)N1CCC[C@H]1C(=O)N1CCC[C@H]1C(=O)N[C@@H](CO)C(N)=O)[C@@H](C)CC [Example 10] (H-Y[Aib]EGTFTSDYSILLDSIAQ[Aib]AFIK([AEEA-AEEA-γGlu-C20 diacid])YLLA[Aib]GPSSGAPPPS-NH2),226,7.64,9.33,1.28,0.109
CC[C@H](C)[C@H](NC(=O)[C@H](CO)NC(=O)[C@H](CC(=O)O)NC(=O)[C@H](CC(C)C)NC(=O)[C@H](CC(C)C)NC(=O)[C@@H](NC(=O)[C@H](CO)NC(=O)[C@H](Cc1ccc(O)cc1)NC(=O)[C@H](CC(=O)O)NC(=O)[C@H](CO)NC(=O)[C@@H](NC(=O)[C@H](Cc1ccccc1)NC(=O)[C@@H](NC(=O)CNC(=O)[C@H](CCC(=O)O)NC(=O)C(C)(C)NC(=O)[C@@H](N)Cc1ccc(O)cc1)[C@@H](C)O)[C@@H](C)O)[C@@H](C)CC)C(=O)N[C@@H](C)C(=O)N[C@@H](CCC(N)=O)C(=O)NC(C)(C)C(=O)N[C@@H](C)C(=O)N[C@@H](Cc1ccccc1)C(=O)N[C@H](C(=O)N[C@@H](CCC(=O)O)C(=O)N[C@@H](Cc1ccc(O)cc1)C(=O)N[C@@H](CC(C)C)C(=O)N[C@@H](CC(C)C)C(=O)N[C@@H](CCCCNC(=O)COCCOCCNC(=O)COCCOCCNC(=O)CC[C@H](NC(=O)CCCCCCCCCCCCCCCCCCC(=O)O)C(=O)O)C(=O)NC(C)(C)C(=O)NCC(=O)N1CCC[C@H]1C(=O)N[C@@H](CO)C(=O)N[C@@H](CO)C(=O)NCC(=O)N[C@@H](C)C(=O)N1CCC[C@H]1C(=O)N1CCC[C@H]1C(=O)N1CCC[C@H]1C(=O)N[C@@H](CO)C(N)=O)[C@@H](C)CC [Example 11] (H-Y[Aib]EGTFTSDYSILLDSIAQ[Aib]AFIEYLLK([AEEA-AEEA-γGlu-C20 diacid])[Aib]GPSSGAPPPS-NH2),174,6.89,15.7,0.486,0.226
CC[C@H](C)[C@H](NC(=O)[C@H](CCCCN)NC(=O)[C@H](CC(=O)O)NC(=O)[C@H](CC(C)C)NC(=O)[C@H](CC(C)C)NC(=O)[C@@H](NC(=O)[C@H](CO)NC(=O)[C@H](Cc1ccc(O)cc1)NC(=O)[C@H](CC(=O)O)NC(=O)[C@H](CO)NC(=O)[C@@H](NC(=O)[C@H](Cc1ccccc1)NC(=O)[C@@H](NC(=O)CNC(=O)[C@H](CCC(=O)O)NC(=O)C(C)(C)NC(=O)[C@@H](N)Cc1ccc(O)cc1)[C@@H](C)O)[C@@H](C)O)[C@@H](C)CC)C(=O)N[C@@H](C)C(=O)N[C@@H](CCC(N)=O)C(=O)N[C@@H](CCCCNC(=O)COCCOCCNC(=O)COCCOCCNC(=O)CC[C@H](NC(=O)CCCCCCCCCCCCCCCCCCC(=O)O)C(=O)O)C(=O)N[C@@H](C)C(=O)N[C@@H](Cc1ccccc1)C(=O)N[C@H](C(=O)N[C@@H](CCC(=O)O)C(=O)N[C@@H](Cc1ccc(O)cc1)C(=O)N[C@@H](CC(C)C)C(=O)N[C@H](C(=O)N[C@@H](CCC(=O)O)C(=O)NCC(=O)NCC(=O)N1CCC[C@H]1C(=O)N[C@@H](CO)C(=O)N[C@@H](CO)C(=O)NCC(=O)N[C@@H](C)C(=O)N1CCC[C@H]1C(=O)N1CCC[C@H]1C(=O)N1CCC[C@H]1C(=O)N[C@@H](CO)C(N)=O)[C@@H](C)CC)[C@@H](C)CC [Example 12] (H-Y[Aib]EGTFTSDYSILLDKIAQK([AEEA-AEEA-γGlu-C20 diacid])AFIEYLIEGGPSSGAPPPS-NH2; N-terminus assumed),684,1.15,12.9,0.3,0.167
